From patent publication US20240024350A1, “ANTI-CANCER COMPOSITION CONTAINING AURANOFIN AND MERCAPTO COMPOUND AND USE THEREOF” (SUN YAT-SEN UNIVERSITY, priority 2020, published 2024)

Tested on: HCT116 human colon cancer cells
Test: MTT colorimetric proliferation / cell survival assay, HCT116
Settings: with 30% FBS, 50 μM for TGTA, β-mercaptoethanol, mercaptoethylamine, DEDT; for Cell survival rate (%): compound alone, others not given; for Cell survival rate after addition of 10 μM auranofin (%): compound plus 10 μM auranofin, listed as Auranofin = auranofin alone

Compound	Cell survival rate (%)	Cell survival rate after addition of 10 μM auranofin (%)
N[C@@H](CCC(=O)N[C@@H](CS)C(=O)NCC(=O)O)C(=O)O [Glutathione (GSH), Glutathione]	116 ± 6	81 ± 7
O=S([O-])([O-])=S.[Na+].[Na+] [sodium thiosulfate]	105 ± 5	84 ± 8
Cn1cc[nH]c1=S [Methimazole]	98 ± 9	87 ± 5
CCCc1cc(=O)[nH]c(=S)[nH]1 [Propylthiouracil]	101 ± 6	76 ± 9
O[C@H](CS)[C@H](O)CS (racemic) [Dithiothreitol (DTT), Dithiothreitol]	102 ± 4	88 ± 6
CC(=O)N[C@@H](CS)C(=O)O [N-acetylcysteine (NAC), N-acetylcysteine]	100 ± 6	77 ± 17
